Where a name gives a salt, the structure may show the parent alone.
Legend:
[1] = biological target: cdk1/cyclin B (Homo sapiens, UniProt P06493); assay: Cyclin-dependent kinase assay, cdk1/cyclin B; conditions: CDK1 IC50, nM, Histone H1, 10 µM ATP
[2] = system: MDA-MB-435; assay: In vitro proliferation assay (MTT), MDA-MB-435; format: cell-based, human; conditions: Homo sapiens, MDA-MB-435, MTT assay; value (SD, n) where given; read-out: MB-435 Breast (IC50 µM)
Method: (§1) The proliferation of tumor cells can be measured using a tetrazolium salt-based assay known as the MTT (3-[4,5-Dimethylthiazol-2-yl]-2,5-diphenyltetrazolium bromide) assay. […] For the assay, the cell lines are plated onto 96 well plates at 1000 to 2500 cells/well (depending on the properties of the individual cell lines), left to attach and recover overnight. […] After 3 days, the cells are incubated with MTT dye (3-[4,5-Dimethylthiazol-2-yl]-2,5-diphenyltetrazolium bromide, Sigma # M5655, 10 mg/ml in Hank's Buffered Saline) to estimate the amount of live cells remaining vs. concentration for the test compounds. […] The MTT and culture medium is then removed from the cultures and 200 µl of DMSO is added to solubilize the dye from the cell layer. The absorbance at 570 nm is determined for each culture using a Spectramax plate reader (Molecular Devices).
(§2) IC50s were determined from the raw data from either the MTT or SRB assays.
(§3) All of the cell lines were obtained from American Type Tissue Collection, with the ATCC accession number in parentheticals. MCF-7 and MDA-MB-231 cells were grown in improved minimum essential medium (Biofluids) without phenol red, supplemented with 5 % fetal bovine serum, 0.01 mg/ml gentamicin and 3 mM L-glutamine.

[3] = biological target: cdk4/cyclin D1 (Homo sapiens, UniProt P11802); assay: Cyclin-dependent kinase assay, cdk4/cyclin D1; format: biochemical; conditions: cyclin D1/cdk4; GST-pRb substrate, 10 µM ATP
[4] = system: PC-3; assay: In vitro proliferation assay (MTT), PC-3; format: cell-based, human; conditions: Homo sapiens, PC-3, MTT assay; value (SD, n) where given; read-out: PC-3 Prostate (IC50 µM)
Method: as §1, §2, §3

[5] = biological target: cdk2/cyclin E (Homo sapiens, UniProt P24941); assay: Cyclin-dependent kinase assay, cdk2/cyclin E; conditions: CDK2 IC50, nM, GST-pRb substrate, 10 µM ATP

Chain of cdk4/cyclin D1 (P11802 whole entry): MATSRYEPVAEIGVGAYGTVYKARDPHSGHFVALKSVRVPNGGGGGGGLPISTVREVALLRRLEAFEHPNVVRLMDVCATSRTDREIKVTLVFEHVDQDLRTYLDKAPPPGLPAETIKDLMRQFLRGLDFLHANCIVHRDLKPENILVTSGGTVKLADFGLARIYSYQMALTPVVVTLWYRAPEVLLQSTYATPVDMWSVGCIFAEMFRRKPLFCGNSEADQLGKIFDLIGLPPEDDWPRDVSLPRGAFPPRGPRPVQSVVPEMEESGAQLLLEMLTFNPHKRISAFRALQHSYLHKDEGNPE
Chain of cdk4/cyclin D1 (P24385 whole entry partner): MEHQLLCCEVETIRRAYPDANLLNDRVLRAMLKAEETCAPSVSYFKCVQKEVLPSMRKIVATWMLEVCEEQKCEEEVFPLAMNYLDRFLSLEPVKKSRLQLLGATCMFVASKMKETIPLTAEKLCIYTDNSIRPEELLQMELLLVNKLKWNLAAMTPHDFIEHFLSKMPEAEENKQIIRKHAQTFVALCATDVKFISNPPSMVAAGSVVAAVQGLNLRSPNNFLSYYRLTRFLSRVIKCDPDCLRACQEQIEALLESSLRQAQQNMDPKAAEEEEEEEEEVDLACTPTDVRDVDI
Chain of cdk1/cyclin B (P06493 whole entry): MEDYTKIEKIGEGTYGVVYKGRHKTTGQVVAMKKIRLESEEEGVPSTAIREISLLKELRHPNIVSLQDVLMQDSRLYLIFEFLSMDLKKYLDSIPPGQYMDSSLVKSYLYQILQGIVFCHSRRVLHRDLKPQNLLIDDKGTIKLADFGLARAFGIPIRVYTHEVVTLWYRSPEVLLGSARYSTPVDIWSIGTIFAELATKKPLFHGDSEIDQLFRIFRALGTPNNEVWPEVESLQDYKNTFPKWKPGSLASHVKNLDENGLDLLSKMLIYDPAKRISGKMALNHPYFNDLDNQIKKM
Chain of cdk1/cyclin B (P14635 whole entry partner): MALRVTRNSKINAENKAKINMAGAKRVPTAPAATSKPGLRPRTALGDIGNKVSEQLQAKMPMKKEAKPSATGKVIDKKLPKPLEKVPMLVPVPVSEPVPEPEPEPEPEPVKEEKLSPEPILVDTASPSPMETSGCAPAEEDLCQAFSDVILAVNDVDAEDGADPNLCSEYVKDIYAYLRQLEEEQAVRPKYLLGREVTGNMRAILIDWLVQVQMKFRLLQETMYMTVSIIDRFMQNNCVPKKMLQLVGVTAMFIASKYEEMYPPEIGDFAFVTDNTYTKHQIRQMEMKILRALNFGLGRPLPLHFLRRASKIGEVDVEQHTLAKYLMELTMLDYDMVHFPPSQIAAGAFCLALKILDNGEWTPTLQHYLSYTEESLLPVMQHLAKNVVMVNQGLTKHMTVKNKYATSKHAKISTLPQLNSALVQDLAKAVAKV

Structure (SMILES)	IC50 [1]	IC50 [2]	IC50 [3]	IC50 [4]	IC50 [5]
COc1cccc(CC(=O)N2CCC(Nc3nc(N[C@H]4CC[C@H](N)CC4)nc4c3ncn4C3CCCC3)CC2)c1 [compound 38, trans-1-{4-[2-(4-Amino-cyclohexylamino)-9-cyclopentyl-9H-purin-6-ylamino]-piperidin-1-yl}-2-(3-methoxy-phenyl)-ethanone dihydrochloride]	27 nM	1.28 µM	703 nM	1.83 µM	66 nM
N[C@H]1CC[C@H](Nc2nc(NC3CCN(C(=O)C4CCCC4)CC3)c3ncn(C4CCCC4)c3n2)CC1 [compound 39, trans-1-{4-[2-(4-Amino-cyclohexylamino)-9-cyclopentyl-9H-purin-6-ylamino]-piperidin-1-yl}-1-cyclopentyl-methanone]	66 nM	0.51 µM	664 nM	0.61 µM	51 nM
N[C@H]1CC[C@H](Nc2nc(NC3CCN(C(=O)C(c4ccccc4)c4ccccc4)CC3)c3ncn(C4CCCC4)c3n2)CC1 [compound 40, trans-1-{4-[2-(4-Amino-cyclohexylamino)-9-cyclopentyl-9H-purin-6-ylamino]-piperidin-1-yl}-2,2-diphenyl-ethanone dihydrochloride]	36 nM	0.22 µM	238 nM	0.27 µM	61 nM
COc1ccc(CC(=O)N2CCC(Nc3nc(N[C@H]4CC[C@H](N)CC4)nc4c3ncn4C3CCCC3)CC2)cc1 [compound 42, trans-1-{4-[2-(4-Amino-cyclohexylamino)-9-cyclopentyl-9H-purin-6-ylamino]-piperidin-1-yl}-2-(4-methoxy-phenyl)-ethanone dihydrochloride]	21 nM	1.1 µM	103 nM	1.06 µM	51 nM
C[C@H](O)C(=O)N1CCC(Nc2nc(N[C@H]3CC[C@H](N)CC3)nc3c2ncn3C2CCCC2)CC1 [compound 47, trans-(S)-1-{4-[2-(4-Amino-cyclohexylamino)-9-cyclopentyl-9H-purin-6-ylamino]-piperidin-1-yl}-2-hydroxy-propan-1-one dihydrochloride]	36 nM	1.99 µM	361 nM	1.8 µM	14 nM
N[C@H]1CC[C@H](Nc2nc(NC3CCN(C(=O)Cc4ccc(F)cc4)CC3)c3ncn(C4CCCC4)c3n2)CC1 [compound 48, trans-1-{4-[2-(4-Amino-cyclohexylamino)-9-cyclopentyl-9H-purin-6-ylamino]-piperidin-1-yl}-2-(4-fluoro-phenyl)-ethanone dihydrochloride]	48 nM	0.75 µM	503 nM	0.84 µM	61 nM
C=CCCC(=O)N1CCC(Nc2nc(N[C@H]3CC[C@H](N)CC3)nc3c2ncn3C2CCCC2)CC1 [compound 49, trans-1-{4-[2-(4-Amino-cyclohexylamino)-9-cyclopentyl-9H-purin-6-ylamino]-piperidin-1-yl}-pent-4-en-1-one dihydrochloride]	121 nM	1.23 µM	88 nM	0.92 µM	49 nM
CC(C)(C)CC(=O)N1CCC(Nc2nc(N[C@H]3CC[C@H](N)CC3)nc3c2ncn3C2CCCC2)CC1 [compound 51, trans-1-{4-[2-(4-Amino-cyclohexylamino)-9-cyclopentyl-9H-purin-6-ylamino]-piperidin-1-yl}-3,3-dimethyl-butan-1-one dihydrochloride]	109 nM	0.42 µM	99 nM	0.5 µM	65 nM
N[C@H]1CC[C@H](Nc2nc(NC3CCN(C(=O)Cc4ccccc4)CC3)c3ncn(C4CCCC4)c3n2)CC1 [compound 52, trans-1-{4-[2-(4-Amino-cyclohexylamino)-9-cyclopentyl-9H-purin-6-ylamino]-piperidin-1-yl}-2-phenyl-ethanone dihydrochloride]	40 nM	0.87 µM	350 nM	0.69 µM	59 nM
CCC(=O)N1CCC(Nc2nc(N[C@H]3CC[C@H](N)CC3)nc3c2ncn3C2CCCC2)CC1 [compound 53, trans-1-{4-[2-(4-Amino-cyclohexylamino)-9-cyclopentyl-9H-purin-6-ylamino]-piperidin-1-yl}-propan-1-one dihydrochloride]	40 nM	1.17 µM	934 nM	0.88 µM	80 nM
CCCCCC(=O)N1CCC(Nc2nc(N[C@H]3CC[C@H](N)CC3)nc3c2ncn3C2CCCC2)CC1 [compound 54, trans-1-{4-[2-(4-Amino-cyclohexylamino)-9-cyclopentyl-9H-purin-6-ylamino]-piperidin-1-yl}-hexan-1-one dihydrochloride]	45 nM	0.6 µM	315 nM	0.59 µM	49 nM
N[C@H]1CC[C@H](Nc2nc(NC3CCN(C(=O)C4CCCCC4)CC3)c3ncn(C4CCCC4)c3n2)CC1 [compound 55, trans-1-{4-[2-(4-Amino-cyclohexylamino)-9-cyclopentyl-9H-purin-6-ylamino]-piperidin-1-yl}-1-cyclohexyl-methanone dihydrochloride]	99 nM	0.41 µM	621 nM	0.57 µM	56 nM
CCCCC(=O)N1CCC(Nc2nc(N[C@H]3CC[C@H](N)CC3)nc3c2ncn3C2CCCC2)CC1 [compound 56, trans-1-{4-[2-(4-Amino-cyclohexylamino)-9-cyclopentyl-9H-purin-6-ylamino]-piperidin-1-yl}-pentan-1-one dihydrochloride]	43 nM	0.61 µM	909 nM	0.69 µM	53 nM
CCCC(=O)N1CCC(Nc2nc(N[C@H]3CC[C@H](N)CC3)nc3c2ncn3C2CCCC2)CC1 [compound 58, trans-1-{4-[2-(4-Amino-cyclohexylamino)-9-cyclopentyl-9H-purin-6-ylamino]-piperidin-1-yl}-butan-1-one dihydrochloride]	52 nM	1.01 µM	357 nM	0.94 µM	68 nM
CC(C)C(=O)N1CCC(Nc2nc(N[C@H]3CC[C@H](N)CC3)nc3c2ncn3C2CCCC2)CC1 [compound 59, trans-1-{4-[2-(4-Amino-cyclohexylamino)-9-cyclopentyl-9H-purin-6-ylamino]-piperidin-1-yl) -2-methyl-propan-1-one dihydrochloride]	93 nM	0.62 µM	721 nM	0.96 µM	52 nM
CC(C)CC(=O)N1CCC(Nc2nc(N[C@H]3CC[C@H](N)CC3)nc3c2ncn3C2CCCC2)CC1 [compound 60, trans-1-{4-[2-(4-Amino-cyclohexylamino)-9-cyclopentyl-9H-purin-6-ylamino]-piperidin-1-yl}-3-methyl-butan-1-one dihydrochloride]	83 nM	0.69 µM	91 nM	0.65 µM	37 nM
N[C@H]1CC[C@H](Nc2nc(NC3CCN(C(=O)Cc4cccs4)CC3)c3ncn(C4CCCC4)c3n2)CC1 [compound 61, trans-1-{4-[2-(4-Amino-cyclohexylamino)-9-cyclopentyl-9H-purin-6-ylamino]-piperidin-1-yl}-2-thiophen-2-yl-ethanone dihydrochloride]	40 nM	0.61 µM	750 nM	0.58 µM	38 nM
N[C@H]1CC[C@H](Nc2nc(NC3CCN(C(=O)C4CC4)CC3)c3ncn(C4CCCC4)c3n2)CC1 [compound 64, trans-1-{4-[2-(4-Amino-cyclohexylamino)-9-cyclopentyl-9H-purin-6-ylamino]-piperidin-1-yl}-1-cyclopropyl-methanone dihydrochloride]	65 nM	1.13 µM	593 nM	1.03 µM	62 nM
COCC(=O)N1CCC(Nc2nc(N[C@H]3CC[C@H](N)CC3)nc3c2ncn3C2CCCC2)CC1 [compound 65, trans-1-{4-[2-(4-Amino-cyclohexylamino)-9-cyclopentyl-9H-purin-6-ylamino]-piperidin-1-yl}-2-methoxy-ethanone dihydrochloride]	72 nM	3.09 µM	764 nM	3.29 µM	50 nM
N[C@H]1CC[C@H](Nc2nc(NC3CCN(C(=O)c4cccc5c4-c4ccccc4C5=O)CC3)c3ncn(C4CCCC4)c3n2)CC1 [compound 66, trans-4-(1-{4-[2-(4-Amino-cyclohexylamino)-9-cyclopentyl-9H-purin-6-ylamino]-piperidin-1-yl}-methanoyl)-fluoren-9-one]	234 nM	1.66 µM	1720 nM	1.93 µM	325 nM
